Marks after values point to notes of the source that are not given here.
Tests used:
[1] = system: α2-antiplasmin deficient plasma; test: CLSM thrombelastography with tPA, α2-antiplasmin deficient plasma; type: biochemical, human
Method: Pooled normal plasma (George King Bio-Medical, Overland Park, Kans.) anticoagulated with sodium citrate was utilized for experimentation. […] Factor XIII (FXIII) deficient plasma anticoagulated with sodium citrate was also obtained from the same vendor.
Plasma Sample Composition. The final volume for all subsequently described plasma sample mixtures was 359.4 μL. Sample composition consisted of 316 μL of plasma; 10 μL of tissue factor (0.1% final concentration in 0.9% NaCl; Diagnostica Stago, Asnieres, France), 3.6 μL of dimethyl sulfoxide (DMSO) or DMSO with CORM-2 (Sigma-Aldrich, St. Louis, Mo.) or DMSO with inactivated CORM-2 (iCORM-2), 10 μL of tissue-type plasminogen activator (tPA, 580 U/μg, Genentech, Inc., San Francisco, Calif.) diluted with 10 mM potassium phosphate buffer (pH 7.4) for a final activity of 100 IU/mL, and 20 μL of 200 mM CaCl2. […] This concentration of CORM-2 was chosen because the concentration of CO released would be expected to be in the mid to lower ranges used in previously reported ex vivo, in vitro, and cell-based experiments (Motterlini et al. 2002; Megias et al. 2007; Chlopicki et al. 2006; Dong et al. 2008). […] (Motterlini et al. 2005). While CORM-2 decays slowly in DMSO, DMSO was added to the dry compound just prior to placement into the plasma mixture. The specific series of experiments are subsequently presented.
Assessment of the Effects of CORM-2 on CLSM Parameters in FXIII, PAI-1, TAFI and α2-antiplasmin Deficient Plasmas. These experiments were performed to elucidate the roles played by antifibrinolytic enzymes during CORM-2 mediated modulation of fibrinolysis. Samples of the various deficient plasmas were exposed to 0 or 100 μM of CORM-2 (n=8 per condition). Samples underwent CLSM analyses as subsequently described.
Clot Lifespan Model Analyses. As described in Example 1, plasma sample mixtures were placed in a disposable cup in a computer-controlled THROMBELASTOGRAPH® hemostasis system (Model 5000, Haemoscope Corp., Niles, Ill.), with addition of CaCl2 as the last step to initiate clotting. Data were collected until clot lysis time occurred. […] As this model involves complete fibrinolysis, TTG is equivalent to ACL, so ACL was not presented as it provides no additional information.
Statistical Analyses. Data are presented as median (1st, 3rd quartiles). […] Nonlinear and linear analyses and curve fitting of the various CORM-2 concentrations effects on CLSM variables were performed with commercially available software (SigmaPlot 11.0, Systat Software, Inc., San Jose, Calif.). Analyses of the effects of CORM-2 and iCORM-2 on CLSM variables in normal plasma were conducted with Kruskal-Wallis one way analysis of variance on ranks, whereas Mann-Whitney rank sum tests were used to assess the effects of CORM-2 on CLSM variables in the various immunodepleted/congenitally deficient plasma types (SigmaStat 3.1, Systat Software, Inc., San Jose, Calif.). Graphical representation of the data was generated with commercially available software (SigmaPlot 11.0, Systat Software, Inc., San Jose, Calif.; CorelDRAW 12.0, Corel Corporation, Ottawa, Ontario, Canada; Origin 7.5, OriginLab Corp., Northampton, Mass.). A P value of <0.05 was considered significant.

rabbit plasma = test: Thrombelastography in rabbit plasma with or without tPA; type: biochemical
Method: Two sets of two Sprague Dawley outbred male rats were anesthetized with ketamine and xylazine and had blood drawn via cardiac puncture, pooled in two batches, and anticoagulated 1:9 with 3.2% sodium citrate. Two male New Zealand White rabbits were sedated with acepromazine and had blood collected via central ear artery and similarly anticoagulated. Blood was centrifuged at 3000×g for 15 min, and the plasma stored in two batches until analyzed. The final volume for thrombelastographic plasma sample mixtures was 359.6 μL. Sample composition consisted of 316 μL of plasma; 10 μL of tissue factor reagent (0.1% final concentration in dH2O; Instrumentation Laboratory, Lexington, Mass.); 10 μL of dH2O or tissue-type plasminogen activator (tPA, 580 U/μg, Genentech, Inc., San Francisco, Calif.) for a final activity of 2000 U/mL for rat plasma or 300 IU/mL for rabbit plasma; 3.6 μL of dimethyl sulfoxide (DMSO) or DMSO with CORM-2 (100 μM final concentration; Sigma-Aldrich, St. Louis, Mo.); and 20 μL of 200 mM CaCl2. The tPA activity for each species was determined with pilot data to obtain reproducible lysis within 15 min. There was no appreciable lysis in rat plasma at 100, 300, or 1000 U/mL tPA. Plasma sample mixtures were placed in a disposable cup in a computer-controlled THROMBELASTOGRAPH® hemostasis system (Model 5000, Haemoscope Corp., Niles, Ill.), with addition of CaCl2 as the last step to initiate clotting. In experiments without tPA, data were collected until clot strength (maximum amplitude) was stable. In experiments with tPA, data derived from the second rabbit plasma samples were collected for 60 min whereas data obtained with the second rat plasma samples were collected for 15 min. Thrombelastographic variables were determined at 39° C. as previously described in Examples 1, 2, and 4. Data were statistically compared with unpaired Student's t-test.

[2] = 100 μM CORM-2, tPA 100 IU/mL, median, n=8
[3] = 300 U/ml tPA, 100 μM CORM-2, mean ± SD, n=4
[4] = 300 U/ml tPA, 100 μM vs 0 μM CORM-2
[5] = no tPA, 100 μM CORM-2, mean ± SD, n=7

## [C-]#[O+].[C-]#[O+].[C-]#[O+].[C-]#[O+].[C-]#[O+].[C-]#[O+].[Cl][Ru][Cl].[Cl][Ru][Cl] [CORM-2, tricarbonyldichlororuthenium (II) dimer]
[1]; [2]
  CGT (clot growth time): 188 s
  CLS (clot lifespan): 378 s
  CLT (clot lysis time): 190 s
  MRL (maximum rate of lysis): −10.0 -dynes/cm^2/sec
  MRTG (maximum rate of thrombus generation): 10.1 dynes/cm^2/sec
  TMRL (time to maximum rate of lysis): 68 s
  TMRTG (time to maximum rate of thrombus generation): 160 s
  TTG (total thrombus generation): 231 dynes/cm^2
[1]; 100 μM CORM-2 vs unexposed
  increase of CLS: 14%
  increase of the velocity of clot formation: 35%
  prolongation of CLT: 23%
Rabbit plasma; [3]
  ACL (area under the curve of lysis): 196.3 ± 25*^ −dynes/cm^2
  MRL (maximum rate of lysis): −2.5 ± 0.4 −dynes/cm^2/sec
  MRTG (maximum rate of thrombus generation): 14.2 ± 1.4 dynes/cm^2/sec
  TMRL (time to maximum rate of lysis): 2.6 ± 0.5 min
  TMRTG (time to maximum rate of thrombus generation): 2.8 ± 0.1 min
  TTG (total thrombus generation): 237 ± 8 dynes/cm^2
Rabbit plasma; [4]
  Percent Change of ACL: 94%
  Percent Change of MRL: −63%
  Percent Change of MRTG: 52%
  Percent Change of TMRL: 110%
  Percent Change of TMRTG: 8%
  Percent Change of TTG: 118%
Rabbit plasma; [5]
  MRTG (maximum rate of thrombus generation): 13.9 ± 2.9 dynes/cm^2/sec
  TMRTG (time to maximum rate of thrombus generation): 2.8 ± 0.1 min
  TTG (total thrombus generation): 290 ± 35 dynes/cm^2
Rabbit plasma; no tPA, 100 μM vs 0 μM CORM-2
  Percent Change of MRTG: 46%
  Percent Change of TMRTG: 5%
  Percent Change of TTG: 25%

— patent US8697747B2, “Enhancing coagulation or reducing fibrinolysis” (THe UAB Research Foundation, priority 2009, dated 2014)
